Here are results for four cell lines from the supplement of paper PMC10307832.

Common to all, as to assay: relative viability (nuclei count vs DMSO), 5 days (fraction); higher = more cells survive
Compound in experiment [1]: O=c1[nH]cc(F)c(=O)[nH]1 [5-Fluorouracil] + N=C(N)NC(=N)NCCc1ccccc1 [Phenformin] (partner 250 µM)
In short, it runs like this: (§1)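 Relative viability is defined as nuclei in treated wells over nuclei in vehicle wells. Duplicate plates were run and medians reported. Lung cancer cell lines in 1536-well plates were dosed by pin tool one day after seeding, with one drug or with a fixed anchor-drug dose plus five library-drug doses (not always all listed) in √10 steps, and nuclei were counted after 5 days.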

Compound in the experiment “Sulindac + Tozasertib”: CC1=C(CC(=O)O)c2cc(F)ccc2/C1=C\c1ccc([S+](C)[O-])cc1 [Sulindac] + Cc1cc(Nc2cc(N3CCN(C)CC3)nc(Sc3ccc(NC(=O)C4CC4)cc3)n2)n[nH]1 [Tozasertib] (partner 0.1 µM)
In short, it runs like this: as §1

Compound in the experiment “Sulindac + Vorinostat”: CC1=C(CC(=O)O)c2cc(F)ccc2/C1=C\c1ccc([S+](C)[O-])cc1 [Sulindac] + O=C(CCCCCCC(=O)Nc1ccccc1)NO [Vorinostat] (partner 1 µM)
The gist of the method: as §1

Compound in experiment [2]: CN[C@@H]1C[C@H]2O[C@@](C)([C@@H]1OC)n1c3ccccc3c3c4c(c5c6ccccc6n2c5c31)C(=O)NC4 [Staurosporine] + C[C@]1(O)C[C@@H](c2nc(-c3ccc4ccc(-c5ccccc5)nc4c3)c3c(N)nccn32)C1 [Linsitinib] (partner 1 µM)
In short, it runs like this:
as §1

RERF-LC-KJ: the relative viability in experiment [1] (first compound 0.02 µM) was found to be 0.465; in experiment [1] (first compound 0.2 µM), 0.452; in experiment [1] (first compound 0.6325 µM), 0.466; in experiment [1] (first compound 2 µM), 0.386; with Sulindac + Tozasertib (first compound 0.08 µM) it was 0.569; with Sulindac + Tozasertib (first compound 0.253 µM), 0.56. In addition, the relative viability with Sulindac + Tozasertib (first compound 0.8 µM) is 0.521; with Sulindac + Tozasertib (first compound 2.53 µM), 0.307; with Sulindac + Tozasertib (first compound 8 µM), 0.568; in the experiment with Sulindac + Vorinostat (first compound 0.08 µM), 0.687; with Sulindac + Vorinostat (first compound 0.253 µM), 0.823; with Sulindac + Vorinostat (first compound 0.8 µM), 0.597. The relative viability with Sulindac + Vorinostat (first compound 2.53 µM) is 0.78; with Sulindac + Vorinostat (first compound 8 µM), 0.734; in experiment [2] (first compound 0.005 µM) it was 0.895; in experiment [2] (first compound 0.01581 µM), 0.804; in experiment [2] (first compound 0.05 µM), 0.431; in experiment [2] (first compound 0.1581 µM) it was 0.213. Moreover, the relative viability in experiment [2] (first compound 0.5 µM) was 0.166.
Take SK-LU-1: the relative viability in experiment [1] (first compound 0.02 µM) came to 0.529; in experiment [1] (first compound 0.2 µM), 0.651; in experiment [1] (first compound 0.6325 µM), 0.501; in experiment [1] (first compound 2 µM) it was 0.485; with Sulindac + Tozasertib (first compound 0.08 µM) it was 0.286; in the experiment with Sulindac + Tozasertib (first compound 0.253 µM), 0.347. Further, the relative viability was 0.342 with Sulindac + Tozasertib (first compound 0.8 µM); 0.288 in the experiment with Sulindac + Tozasertib (first compound 2.53 µM); 0.406 with Sulindac + Tozasertib (first compound 8 µM); 0.877 with Sulindac + Vorinostat (first compound 0.08 µM); 0.901 with Sulindac + Vorinostat (first compound 0.253 µM); 0.74 with Sulindac + Vorinostat (first compound 0.8 µM). For the same cell line, the relative viability with Sulindac + Vorinostat (first compound 2.53 µM) is 0.722; with Sulindac + Vorinostat (first compound 8 µM), 0.874; in experiment [2] (first compound 0.005 µM) it was 0.313; in experiment [2] (first compound 0.01581 µM) it was 0.263; in experiment [2] (first compound 0.05 µM), 0.205; in experiment [2] (first compound 0.1581 µM), 0.2. The relative viability in experiment [2] (first compound 0.5 µM) worked out at 0.145.
Turning to SK-MES-1, the relative viability in experiment [1] (first compound 0.02 µM) is 0.748; in experiment [1] (first compound 0.2 µM) it was 0.4; in experiment [1] (first compound 0.6325 µM), 0.331; in experiment [1] (first compound 2 µM), 0.242; in the experiment with Sulindac + Tozasertib (first compound 0.08 µM), 1.07; in the experiment with Sulindac + Tozasertib (first compound 0.253 µM) it was 1.01. Also, the relative viability came to 0.848 with Sulindac + Tozasertib (first compound 0.8 µM); 0.956 in the experiment with Sulindac + Tozasertib (first compound 2.53 µM); 1.09 with Sulindac + Tozasertib (first compound 8 µM); 1.43 with Sulindac + Vorinostat (first compound 0.08 µM); 1.25 with Sulindac + Vorinostat (first compound 0.253 µM); 1.09 with Sulindac + Vorinostat (first compound 0.8 µM). Besides, the relative viability with Sulindac + Vorinostat (first compound 2.53 µM) came out at 1.23; in the experiment with Sulindac + Vorinostat (first compound 8 µM), 1.16; in experiment [2] (first compound 0.005 µM), 0.836; in experiment [2] (first compound 0.01581 µM), 0.403; in experiment [2] (first compound 0.05 µM) it was 0.318; in experiment [2] (first compound 0.1581 µM) it was 0.267. The relative viability in experiment [2] (first compound 0.5 µM) came to 0.153.
With SW 1573, the relative viability in experiment [1] (first compound 0.02 µM) was 0.475; in experiment [1] (first compound 0.2 µM) it was 0.42; in experiment [1] (first compound 0.6325 µM), 0.385; in experiment [1] (first compound 2 µM) it was 0.246; in the experiment with Sulindac + Tozasertib (first compound 0.08 µM) it was 0.183; in the experiment with Sulindac + Tozasertib (first compound 0.253 µM), 0.144. Besides, the relative viability with Sulindac + Tozasertib (first compound 2.53 µM) stood at 0.172; in the experiment with Sulindac + Tozasertib (first compound 8 µM) it was 0.163; in the experiment with Sulindac + Vorinostat (first compound 0.08 µM) it was 0.777; in the experiment with Sulindac + Vorinostat (first compound 0.253 µM), 0.95; with Sulindac + Vorinostat (first compound 0.8 µM), 0.585; with Sulindac + Vorinostat (first compound 2.53 µM), 0.683. Also, the relative viability in the experiment with Sulindac + Vorinostat (first compound 8 µM) worked out at 1.11; in experiment [2] (first compound 0.005 µM) it was 0.586; in experiment [2] (first compound 0.01581 µM), 0.449; in experiment [2] (first compound 0.05 µM), 0.144; in experiment [2] (first compound 0.1581 µM), 0.131; in experiment [2] (first compound 0.5 µM), 0.107.
